Results as given in patent US9211310B2, “Use of a Chinese medicine composition in preparing medicaments for treating secondary prevention of myocardial infarction” (TASLY PHARMACEUTICAL GROUP CO., LTD, priority 2010, dated 2015).

System: patients after acute myocardial infarction
Assay: Life quality, Seattle Angina Questionnaire (SAQ), same clinical trial
Format: in vivo, human
Source text: 3508 patients who were in accordance with the diagnostic standards of AMI for 28 days to 2 years and differentiated as Qi deficiency and blood stagnation syndrome by TCM were studied. 0.5 g Chinese medicine composition prepared by the method of EXAMPLE 1 (Coded as QSYQ) was administrated half an hour after meal, 3 times per day.
There were 19 questions in the Seattle angina questionnaire (SAQ), including 5 parts: physical limitation (PL), anginal stability (AS), anginal frequency (AF), treatment satisfaction (TS) and disease perception (DP). After being given necessary explanation by doctors, the questions were answered independently by patients.
They included the overall survival time, angina pectoris score, TCM symptom score and life quality score, where angina pectoris score, TCM symptom score and life quality score were evaluated at randomization, in 1st, 3rd, 6th, 9th, 12th month after treatment and 18th month after follow-up.
All evaluation results of SAQ were described during the period of observation, and Wilcoxon rank sum test was used for inter-group comparison.
The evaluation results in the SAQ were depicted in different observations, and inter-group comparison was tested by Wilcoxon Rank-sum test.

## CC(=O)Oc1ccccc1C(=O)O [Control group, aspirine]
9 months after treatment, FAS
  SAQ Question 1-4: Not limited, number of patients: 797
  SAQ Question 1-4: Not limited, percent of patients: (45.70%)
  SAQ Question 1-4: Other reasons, number of patients: 10
  SAQ Question 1-4: Other reasons, percent of patients: (0.57%)
  SAQ Question 1-4: Severely limited, number of patients: 19
  SAQ Question 1-4: Severely limited, percent of patients: (1.09%)
  SAQ Question 1-4: Slightly limited, number of patients: 569
  SAQ Question 1-4: Slightly limited, percent of patients: (32.63%)
  SAQ Question 1-5: Mildly limited, number of patients: 284
  SAQ Question 1-5: Mildly limited, percent of patients: (16.29%)
  SAQ Question 1-5: Moderately limited, number of patients: 103
  SAQ Question 1-5: Moderately limited, percent of patients: (5.91%)
  SAQ Question 1-5: Not limited, number of patients: 825
  SAQ Question 1-5: Not limited, percent of patients: (47.33%)
  SAQ Question 1-5: Other reasons, number of patients: 11
  SAQ Question 1-5: Other reasons, percent of patients: (0.63%)
  SAQ Question 1-5: Severely limited, number of patients: 17
  SAQ Question 1-5: Severely limited, percent of patients: (0.98%)
  SAQ Question 1-5: Slightly limited, number of patients: 503
  SAQ Question 1-5: Slightly limited, percent of patients: (28.86%)
  SAQ Question 1-9: Mildly limited, % of cases: (19.38%)
  SAQ Question 1-9: Mildly limited, cases: 332
  SAQ Question 1-9: Moderately limited, % of cases: (20.61%)
  SAQ Question 1-9: Moderately limited, cases: 353
  SAQ Question 1-9: Not limited, % of cases: (3.91%)
  SAQ Question 1-9: Not limited, cases: 67
  SAQ Question 1-9: Other reasons, % of cases: (5.60%)
  SAQ Question 1-9: Other reasons, cases: 96
  SAQ Question 1-9: Severely limited, % of cases: (33.39%)
  SAQ Question 1-9: Severely limited, cases: 572
  SAQ Question 1-9: Slightly limited, % of cases: (17.10%)
  SAQ Question 1-9: Slightly limited, cases: 293
9 months after treatment, PP
  SAQ 2nd question: Clearly increased, % of cases: (0.63%)
  SAQ 2nd question: Clearly increased, cases: 9
  SAQ 2nd question: Clearly reduced, % of cases: (26.01%)
  SAQ 2nd question: Clearly reduced, cases: 373
  SAQ 2nd question: Same, % of cases: (34.94%)
  SAQ 2nd question: Same, cases: 501
  SAQ 2nd question: Slightly increased, % of cases: (3.21%)
  SAQ 2nd question: Slightly increased, cases: 46
  SAQ 2nd question: Slightly reduced, % of cases: (35.22%)
  SAQ 2nd question: Slightly reduced, cases: 505
  SAQ 3rd question: 1-2 times per week, % of cases: (35.22%)
  SAQ 3rd question: 1-2 times per week, cases: 505
  SAQ 3rd question: 1-3 times per day, % of cases: (3.21%)
  SAQ 3rd question: 1-3 times per day, cases: 46
  SAQ 3rd question: <1 time per week, % of cases: (26.01%)
  SAQ 3rd question: <1 time per week, cases: 373
  SAQ 3rd question: No onset, % of cases: (0.00%)
  SAQ 3rd question: No onset, cases: 0
  SAQ 3rd question: ≧3 times per week, % of cases: (34.94%)
  SAQ 3rd question: ≧3 times per week, cases: 501
  SAQ 3rd question: ≧4 times per day, % of cases: (0.63%)
  SAQ 3rd question: ≧4 times per day, cases: 9
  SAQ Question 1-3: Mildly limited, number of patients: 37
  SAQ Question 1-3: Mildly limited, percent of patients: (2.57%)
  SAQ Question 1-3: Moderately limited, number of patients: 10
  SAQ Question 1-3: Moderately limited, percent of patients: (0.70%)
  SAQ Question 1-3: Not limited, number of patients: 1187
  SAQ Question 1-3: Not limited, percent of patients: (82.60%)
  SAQ Question 1-3: Other reasons, number of patients: 6
  SAQ Question 1-3: Other reasons, percent of patients: (0.42%)
  SAQ Question 1-3: Severely limited, number of patients: 1
  SAQ Question 1-3: Severely limited, percent of patients: (0.07%)
  SAQ Question 1-3: Slightly limited, number of patients: 196
  SAQ Question 1-3: Slightly limited, percent of patients: (13.64%)
  SAQ Question 1-4: Mildly limited, number of patients: 208
  SAQ Question 1-4: Mildly limited, percent of patients: (14.49%)
  SAQ Question 1-4: Moderately limited, number of patients: 63
  SAQ Question 1-4: Moderately limited, percent of patients: (4.39%)
  SAQ Question 1-4: Not limited, number of patients: 673
  SAQ Question 1-4: Not limited, percent of patients: (46.90%)
  SAQ Question 1-4: Other reasons, number of patients: 10
  SAQ Question 1-4: Other reasons, percent of patients: (0.70%)
  SAQ Question 1-4: Severely limited, number of patients: 9
  SAQ Question 1-4: Severely limited, percent of patients: (0.63%)
  SAQ Question 1-4: Slightly limited, number of patients: 472
  SAQ Question 1-4: Slightly limited, percent of patients: (32.89%)
  SAQ Question 1-5: Mildly limited, number of patients: 226
  SAQ Question 1-5: Mildly limited, percent of patients: (15.75%)
  SAQ Question 1-5: Moderately limited, number of patients: 77
  SAQ Question 1-5: Moderately limited, percent of patients: (5.37%)
  SAQ Question 1-5: Not limited, number of patients: 705
  SAQ Question 1-5: Not limited, percent of patients: (49.13%)
  SAQ Question 1-5: Other reasons, number of patients: 10
  SAQ Question 1-5: Other reasons, percent of patients: (0.70%)
  SAQ Question 1-5: Severely limited, number of patients: 9
  SAQ Question 1-5: Severely limited, percent of patients: (0.63%)
  SAQ Question 1-5: Slightly limited, number of patients: 408
  SAQ Question 1-5: Slightly limited, percent of patients: (28.43%)
  SAQ Question 1-9: Mildly limited, % of cases: (19.70%)
  SAQ Question 1-9: Mildly limited, cases: 275
  SAQ Question 1-9: Moderately limited, % of cases: (20.92%)
  SAQ Question 1-9: Moderately limited, cases: 292
  SAQ Question 1-9: Not limited, % of cases: (4.23%)
  SAQ Question 1-9: Not limited, cases: 59
  SAQ Question 1-9: Other reasons, % of cases: (5.80%)
  SAQ Question 1-9: Other reasons, cases: 81
  SAQ Question 1-9: Severely limited, % of cases: (32.38%)
  SAQ Question 1-9: Severely limited, cases: 452
  SAQ Question 1-9: Slightly limited, % of cases: (16.98%)
  SAQ Question 1-9: Slightly limited, cases: 237
12 months after treatment, FAS
  SAQ 2nd question: 6, % of cases: (0.00%)
  SAQ 2nd question: 6, cases: 0
  SAQ 2nd question: Clearly increased, % of cases: (1.32%)
  SAQ 2nd question: Clearly increased, cases: 23
  SAQ 2nd question: Clearly reduced, % of cases: (27.55%)
  SAQ 2nd question: Clearly reduced, cases: 480
  SAQ 2nd question: Same, % of cases: (37.83%)
  SAQ 2nd question: Same, cases: 659
  SAQ 2nd question: Slightly increased, % of cases: (3.16%)
  SAQ 2nd question: Slightly increased, cases: 55
  SAQ 2nd question: Slightly reduced, % of cases: (30.14%)
  SAQ 2nd question: Slightly reduced, cases: 525
  SAQ 3rd question: 1-2 times per week, % of cases: (30.14%)
  SAQ 3rd question: 1-2 times per week, cases: 525
  SAQ 3rd question: 1-3 times per day, % of cases: (3.16%)
  SAQ 3rd question: 1-3 times per day, cases: 55
  SAQ 3rd question: <1 time per week, % of cases: (27.55%)
  SAQ 3rd question: <1 time per week, cases: 480
  SAQ 3rd question: No onset, % of cases: (0.00%)
  SAQ 3rd question: No onset, cases: 0
  SAQ 3rd question: ≧3 times per week, % of cases: (37.83%)
  SAQ 3rd question: ≧3 times per week, cases: 659
  SAQ 3rd question: ≧4 times per day, % of cases: (1.32%)
  SAQ 3rd question: ≧4 times per day, cases: 23
  SAQ Question 1-3: Mildly limited, number of patients: 54
  SAQ Question 1-3: Mildly limited, percent of patients: (3.10%)
  SAQ Question 1-3: Moderately limited, number of patients: 11
  SAQ Question 1-3: Moderately limited, percent of patients: (0.63%)
  SAQ Question 1-3: Not limited, number of patients: 1471
  SAQ Question 1-3: Not limited, percent of patients: (84.35%)
  SAQ Question 1-3: Other reasons, number of patients: 10
  SAQ Question 1-3: Other reasons, percent of patients: (0.57%)
  SAQ Question 1-3: Severely limited, number of patients: 2
  SAQ Question 1-3: Severely limited, percent of patients: (0.11%)
  SAQ Question 1-3: Slightly limited, number of patients: 196
  SAQ Question 1-3: Slightly limited, percent of patients: (11.24%)
  SAQ Question 1-4: Mildly limited, number of patients: 236
  SAQ Question 1-4: Mildly limited, percent of patients: (13.53%)
  SAQ Question 1-4: Moderately limited, number of patients: 66
  SAQ Question 1-4: Moderately limited, percent of patients: (3.78%)
  SAQ Question 1-4: Not limited, number of patients: 853
  SAQ Question 1-4: Not limited, percent of patients: (48.91%)
  SAQ Question 1-4: Other reasons, number of patients: 11
  SAQ Question 1-4: Other reasons, percent of patients: (0.63%)
  SAQ Question 1-4: Severely limited, number of patients: 13
  SAQ Question 1-4: Severely limited, percent of patients: (0.75%)
  SAQ Question 1-4: Slightly limited, number of patients: 565
  SAQ Question 1-4: Slightly limited, percent of patients: (32.40%)
  SAQ Question 1-5: Mildly limited, number of patients: 260
  SAQ Question 1-5: Mildly limited, percent of patients: (14.92%)
  SAQ Question 1-5: Moderately limited, number of patients: 79
  SAQ Question 1-5: Moderately limited, percent of patients: (4.53%)
